Experiment [1] deals with KRAS-G12C (C51S/C80L/C118S) (Homo sapiens, UniProt P01116, C118S/C51S/C80L/G12C). The experiment in a line: SOS-catalyzed nucleotide exchange assay (Procedure A, TR-FRET), KRAS-G12C. The following applies: nucleotide exchange, Procedure A; read-out: KRAS G12C GNE IC50. The format is biochemical. In short, it runs like this: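 TR-FRET 520/495 nm ratio read after SOS-driven exchange of Bodipy-GDP for unlabeled GTP (3 mM) on biotinylated RAS bound to Tb-streptavidin. There was a 60 min compound preincubation, RT. Final RAS/SOS and reaction times: G12C 3 nM/40 nM; WT 1 nM/40 nM; NRAS 1.25 nM/40 nM, each 60 min. G12V was 1.25 nM/160 nM, 90 min.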

The next experiment addresses NRAS (Homo sapiens, UniProt P01111). The experiment in a line: SOS-catalyzed nucleotide exchange assay (Procedure A, TR-FRET), NRAS. The format is biochemical. Particulars: read-out: NRAS GNE IC50. From the text:
Procedure for SOS-Catalyzed Nucleotide Exchange Assay for KRAS-WT, G12C/D/V, G13D, HRAS, and NRAS (Procedure A)
Recombinant KRAS-G12C protein used in this assay has an additional triple mutation (C51S/C80L/C118S). Whereas KRAS-WT, G12D/V, G13D, HRAS and NRAS are in context of their WT protein sequence background. Specifically, the SOS-catalyzed nucleotide exchange assay utilizes a preformed TR-FRET complex containing a specific biotinylated RAS protein (KRAS-WT, G12C/V/D, G13D, HRAS, NRAS; described above) with Bodipy-GDP, and Terbium-streptavidin. Compounds are preincubated with this complex for 60 minutes. Subsequently, recombinant human SOS protein and unlabeled GTP are added to initiate the exchange reaction. Small molecule inhibitors stabilize the Bodipy-GDP complex whereas the untreated protein rapidly exchanges Bodipy-GDP for unlabeled GTP resulting in reduced TR-FRET signal.
To assemble the preformed TR-FRET complexes, each biotinylated RAS protein is diluted to 2 μM in an EDTA Buffer (20 mM HEPES pH 7.5, 50 mM sodium chloride, 10 mM EDTA, and 0.01% Tween) and incubated at room temperature for one hour. This mixture is then further diluted to 90 nM in an Assay Buffer (20 mM HEPES pH 7.5, 150 mM sodium chloride, 10 mM magnesium chloride, and 0.005% Tween) containing 15 nM of Terbium-Streptavidin (Invitrogen, catalog #PV3577) and 900 nM of Bodipy-GDP (Invitrogen, catalog #G22360) and incubated at room temperature for six hours. It should be noted that this preformed TR-FRET complex for each of the RAS protein were made ahead of time, aliquoted and stored at −80° C. until the day of the experiment.
Each test compound (10 mM stock in DMSO) is diluted in DMSO to make a final-10-point, 3-fold dilution and is acoustically dispensed into a 384-well assay plate (Corning, catalog #3820) using an Echo 550 (Labcyte). Each well of the assay plate receives 3 μL of a specific 3×RAS preformed TR-FRET complex and 3 μL of Assay Buffer and is incubated at room temperature for 60 minutes (preincubation time). Each well then receives 3 μL of 3×recombinant human SOS protein and GTP (Sigma, G8877) in Assay Buffer and is incubated at room temperature for 30 minutes (G13D), 60 minutes (KRAS WT/G12C/D, H/NRAS) or 90 minutes for G12V. […]
The time-resolved fluorescence resonance energy transfer (TR-FRET) signal is measured on an Envision (PerkinElmer) plate reader: Excitation filter=340 nm; emission 1=495 nm; emission2=520 nm; dichroic mirror=D400/D505; delay time=[…]. The signal of each well is determined as the ratio of the emission at 520 nm to that at 495 nm. Percent effect of each well is determined after normalization to control wells containing DMSO (no effect) or a saturating concentration of inhibitor (max effect). […]

For another experiment, the system named is AsPC-1 cells. Description: Cellular phospho-ERK assay, AsPC-1 cells (homozygous KRAS-G12D). It counts as cell-based. Particulars: Homo sapiens, ASPC1, 2 h, KRAS-G12D, 2 hours, read-out: AsPC1 pERK IC50. The method, boiled down:
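10k–15k cells/well, o/n attach; cpd 2 h, 37 °C, 10-pt 1:3 from 30 μM final; lyse with protease/phosphatase inhibitors 30 min RT; multiplex SureFire p-ERK + total ERK; IC50 via 4PL on ratio.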

pIC50: −log10 of the molar value.

NRAS, sequence (P01111 with tags, fused parts or gaps): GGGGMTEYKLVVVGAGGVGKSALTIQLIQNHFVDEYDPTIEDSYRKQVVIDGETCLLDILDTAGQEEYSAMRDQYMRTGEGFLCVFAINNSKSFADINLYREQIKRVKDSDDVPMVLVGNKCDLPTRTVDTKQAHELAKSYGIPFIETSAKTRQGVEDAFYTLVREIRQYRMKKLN
KRAS-G12C (C51S/C80L/C118S), sequence (P01116 with tags, fused parts or gaps isoform P01116-2 G12C/C51S/C80L/C118S): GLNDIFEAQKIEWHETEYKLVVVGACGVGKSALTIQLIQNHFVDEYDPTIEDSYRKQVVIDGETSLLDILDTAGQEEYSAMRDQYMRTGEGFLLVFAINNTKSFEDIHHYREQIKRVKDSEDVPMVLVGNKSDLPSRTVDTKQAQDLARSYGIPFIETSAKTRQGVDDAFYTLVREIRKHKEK

Regarding `C#Cc1c(F)ccc2cc(O)cc(-c3nccc4c5c(N6CCOC[C@@](C)(O)C6)nc(OC[C@@]67CCCN6C[C@H](F)C7)nc5n(C)c34)c12` [Ex-18, (S)-4-(8-(8-ethynyl-7-fluoro-3-hydroxynaphthalen-1-yl)-2-(((2R,7aS)-2-fluorotetrahydro-1H-pyrrolizin-7a(5H)-yl)methoxy)-9-methyl-9H-pyrido[4′,3′:4,5]pyrrolo[2,3-d]pyrimidin-4-yl)-6-methyl-1,4-oxazepan-6-ol], the pIC50 (commonly the IC50 on a negative log10 scale, so that one unit is a factor of ten) in experiment [1] was 7.98; at NRAS it was 5.05; in the experiment on AsPC-1 cells, 7.53.

Values taken from patent publication US20260176289A1, “SMALL MOLECULE INHIBITORS OF KRAS PROTEINS” (Merck Sharp & Dohme LLC, priority 2022, published 2026).
